In test [1] the target is T1, APOL1 (Homo sapiens, UniProt O14791).
T1 sequence (O14791 1-398 S342G/I384M): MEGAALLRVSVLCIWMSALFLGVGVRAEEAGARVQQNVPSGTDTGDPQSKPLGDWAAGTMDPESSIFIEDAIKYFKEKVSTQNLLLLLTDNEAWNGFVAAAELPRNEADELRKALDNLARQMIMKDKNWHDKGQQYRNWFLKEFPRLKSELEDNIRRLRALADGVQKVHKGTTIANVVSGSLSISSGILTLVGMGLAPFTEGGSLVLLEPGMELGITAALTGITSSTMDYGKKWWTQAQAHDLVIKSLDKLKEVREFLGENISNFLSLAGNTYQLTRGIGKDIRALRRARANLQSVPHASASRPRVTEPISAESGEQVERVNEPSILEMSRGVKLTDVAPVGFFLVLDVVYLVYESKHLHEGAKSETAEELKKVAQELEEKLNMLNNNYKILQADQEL
In words: Multi-Tox Assay (MultiTox-Fluor Multiplex Cytotoxicity Assay in tet-inducible APOL1 T-REx-HEK293 cells; Table 46 does not say which APOL1 variant G0/G1/G2). The format is cell-based. The note with it: APOL1 variant not given; for IC50: IP50 = IC50 for cell proliferation.

For test [2], the target named is T2, APOL1 G1 (Homo sapiens, UniProt O14791, I384M/S342G).
T2 sequence (O14791 28-398 S342G/I384M): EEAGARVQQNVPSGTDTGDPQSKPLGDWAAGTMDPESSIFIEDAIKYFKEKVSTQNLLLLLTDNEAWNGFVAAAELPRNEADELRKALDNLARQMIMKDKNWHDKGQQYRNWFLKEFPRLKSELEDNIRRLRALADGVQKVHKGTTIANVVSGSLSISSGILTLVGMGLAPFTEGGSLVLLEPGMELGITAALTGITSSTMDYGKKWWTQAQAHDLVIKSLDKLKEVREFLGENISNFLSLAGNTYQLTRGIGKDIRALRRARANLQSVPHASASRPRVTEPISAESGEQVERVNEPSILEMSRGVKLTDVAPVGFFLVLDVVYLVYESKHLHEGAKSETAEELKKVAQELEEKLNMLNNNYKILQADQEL
In words: Trypanosoma brucei brucei Lysis Assay Using APOL1 Recombinant Protein (AlamarBlue viability readout). The format is cell-based. Conditions: Trypanosome Assay; for IC50: IP50 = IC50 for cell proliferation, read-out: Trypanosome Assay IP50; for Emax: read-out: Trypanosome Assay Max Activity (%). The source says: Trypanosoma brucei brucei is a blood stream parasite to which human, gorillas, and baboons are immune due to the presence of the APOL1 protein in their HDL particles. The protein is uptaken by the parasite via the TbHpHb receptor located in its flagellar pocket and is bonded by the Hpr protein contained in the HDL particles which triggers the receptor endocytosis by the parasite.
Following endocytosis, the formed vesicle containing the HDL particle matures from early to late endosome, and subsequently to lysosome. The concomitant pH change in the lumen of the vesicle triggers the insertion of the APOL1 protein into the membrane of the late endosome/lysosome and hereby triggers lysosomal membrane permeabilization and as a further downstream event, trypanosome lysis. Trypanosoma brucei brucei is sensitive to lysis by all three APOL1 variants (G0, G1, and G2).
The Trypanosoma brucei brucei lysis assay is a lysis assay of the parasite using recombinant APOL1 protein variant followed by a fluorescent detection method of viability by the addition of AlamarBlue reagent to the assay well, a general metabolic redox indicator (AlamarBlue assay).
Briefly, the AlamarBlue active compound, resazurin, a blue, water soluble, non-toxic and cell permeable molecule, which can be followed by absorbance, is reduced by various metabolic pathways into resorufin, a red compound which can be followed by either absorbance or fluorescence. The assay allows the calculation of the percent viability (percent of living Trypanosomes remaining in each well) at the end of a lysis relative to the untreated condition by interpolation of fluorescent values (FLU) on a standard curve with a known amount of seeded trypanosome/well.
Trypanosoma brucei brucei (ATCC, Cat. No. PRA-382)
• Lister 427 VSG 221 bloodstream form.
Equipment • E1-Clip Tip pipette 12 channel adjustable 2-125 μL, Cat. No. 4672070BT • ThermoFisher MultiDrop 384, Cat. No. 5840300 • Multidrop • Agilent Bravo, Cat. No. G5409A • Bravo • SpectraMax M5 Assay Ready Plates (ARPs) • ARPs comes in two formats: • […] final top concentration with a 2.5 fold dilution down. • […] final top concentration with a 3 fold dilution down. • Both have a 10 point Dose response. • 0.1% DMSO final in the Black Assay Plate. • Compounds are diluted 1000 fold in the Black Assay Plate. • Each plate is designed for 14 compounds in duplicate. • In the final Black Assay Plate: • Column 1: Media only (no APOL1) (100% viable) • Column 2-23: 0.05 μg/mL APOL1 (˜EC90) (10% viable with APOL1) • Column 24: 0.1 μg/mL APOL1 (EC100) (Approx. […] Step 2, Day 4 • Centrifuge at 800×g for 5 minutes at room temperature. • Resuspend in 1 mL media. • Make a 1:25 fold dilution (10 μL/240 μL media). • Count on a hemocytometer (after adding parasites). • Let sit for 1-2 minutes for the parasites to settle. • Count should be approximately 100 viable motile parasites/16 grid or approximately 25×10^6 parasites/flask. • Passage the parasites by adding 1×10^6 parasites/T75 flask in 20 mL media. • Passage the parasites by adding 2.33×10^6 parasites/T175 flask in 46.6 mL media. • For every T75 flask should make enough for approximately 1.5×384 well assay plates. • For every T175 flask should make enough for approximately 3.8×384 well assay plates. Step 3, Day 6 • Centrifuge at 800×g for 5 minutes. • Resuspend in 3 mL assay media (No phenol red, no FBS) per 75 starting flask. • Resuspend in 7 mL assay media (No phenol red, no FBS) per 175 flask • Make a 1:25 fold dilution. • Count by hemocytometer. • Every T75 flask set up should have approximately 75×10^6 parasites/flask (verify doubling time=8.7 hours±1 hour). • Every T175 flask set up should have approximately 175×10^6 parasites/flask (verify doubling time=8.7 hours±1 hour). • Require 46×10^6 parasites per 384 well plate (at 120,000 parasites per well). […]
(In general: Alamar Blue is a resazurin reagent that responds to reducing activity.)

Turning to `CNc1ncc([C@@H]2C[C@]3(C[C@H](C)N2)OCCc2cc(Cl)sc23)cn1` (racemic) [Compound 60], in test [1], the “Multi-Tox Assay Max Activity (%)” value came to 99.7% and the IC50 is less than 50 nM. In test [2], the IC50 is less than 50 nM and the Emax worked out at 102%.

With `COc1ccc([C@@H]2C[C@]3(C[C@H](C)N2)OCCc2cc(Cl)sc23)cc1C#N` (racemic) [Compound 62], in test [1], the IC50 is less than 50 nM. For the same compound, in test [2], the IC50 was less than 50 nM and the Emax stood at 95%.

Consider `C[C@H]1C[C@@]2(C[C@@H](c3cnc(C(N)=O)cn3)N1)OCCc1cc(Cl)sc12` (racemic) [Compound 63], for which the IC50 in test [1] and in test [2] was less than 50 nM in each case. Moreover, the Emax in test [2] was determined as 104%.

As to `Cc1cncc([C@@H]2C[C@]3(C[C@H](C)N2)OCCc2cc(Cl)sc23)c1` (racemic) [Compound 64], the IC50 in test [1] and in test [2] was less than 50 nM each time.

Compound `C[C@H]1C[C@@]2(C[C@@H](c3cnn(-c4ccccc4)c3)N1)OCCc1cc(Cl)sc12` (racemic) [Compound 65] showed an IC50 in test [1] of less than 50 nM. Further, in test [2], the IC50 is less than 50 nM and the Emax was determined as 105%.

Compound `Cc1cc([C@@H]2C[C@]3(C[C@H](C)N2)OCCc2cc(Cl)sc23)on1` (racemic) [Compound 66] showed an IC50 in test [1] of less than 50 nM. In test [2], the IC50 was less than 50 nM and the Emax is 103%.

`C[C@H]1C[C@@]2(C[C@@H](c3ccc4cn[nH]c4c3)N1)OCCc1cc(Cl)sc12` (racemic) [Compound 67] showed an IC50 in test [1] of less than 50 nM. In test [2], the IC50 is less than 50 nM and the Emax was determined as 105%.

Consider `C[C@H]1C[C@@]2(C[C@@H](c3ccc(O)nc3)N1)OCCc1cc(Cl)sc12` (racemic) [Compound 68], for which the IC50 in test [1] was less than 50 nM. In test [2], the IC50 was less than 50 nM and the Emax came to 106%.

For the compound `CCOc1ccc([C@@H]2C[C@]3(C[C@H](C)N2)OCCc2cc(Cl)sc23)nc1` (racemic) [Compound 69], the IC50 in test [1] is less than 50 nM. In addition, in test [2], the IC50 was less than 50 nM and the Emax turned out to be 110%.

For `C[C@H]1C[C@@]2(C[C@@H](c3cnc(-c4ccccc4)o3)N1)OCCc1cc(Cl)sc12` (racemic) [Compound 70], the IC50 in test [1] and in test [2] was less than 50 nM throughout. Further, the Emax in test [2] stood at 104%.

The compound `C[C@H]1C[C@@]2(C[C@@H](c3ccc(C(=O)NC4CC4)cc3)N1)OCCc1cc(Cl)sc12` (racemic) [Compound 71] displayed an IC50 in test [1] of less than 50 nM. Also, in test [2], the IC50 is less than 50 nM and the Emax is 104%.

The compound `C[C@H]1C[C@@]2(C[C@@H](c3c[nH]nn3)N1)OCCc1cc(Cl)sc12` (racemic) [Compound 72] had an IC50 in test [1] of less than 50 nM. Also, in test [2], the IC50 is less than 50 nM and the Emax is 118%.

Consider `Cc1cc([C@@H]2C[C@]3(C[C@H](C)N2)OCCc2cc(Cl)sc23)[nH]n1` (racemic) [Compound 73], for which the IC50 in test [1] and in test [2] was less than 50 nM each time. Also, the Emax in test [2] is 110%.

Take `C[C@H]1C[C@@]2(C[C@@H](c3cn4c(n3)COCC4)N1)OCCc1cc(Cl)sc12` (racemic) [Compound 74]: the IC50 is less than 50 nM in test [1] and 50 to 500 nM in test [2]. The Emax in test [2] was 110%.

Regarding `C[C@H]1C[C@@]2(C[C@@H](c3cnc(N(C)C)nc3)N1)OCCc1cc(Cl)sc12` (racemic) [Compound 75], the IC50 in test [1] and in test [2] was less than 50 nM in each case. Also, the Emax in test [2] is 105%.

On to `Cc1ccc([C@@H]2C[C@]3(C[C@H](C)N2)OCCc2cc(Cl)sc23)nc1` (racemic) [Compound 77], for which the IC50 in test [1] and in test [2] was less than 50 nM throughout. The Emax in test [2] came out at 110%.

As for `C[C@H]1C[C@@]2(C[C@@H](c3ccc(S(N)(=O)=O)cc3F)N1)OCCc1cc(Cl)sc12` (racemic) [Compound 78], the IC50 in test [1] and in test [2] was less than 50 nM in each case. Further, the Emax in test [2] was 102%.

Consider `C[C@H]1C[C@@]2(C[C@@H](c3cocn3)N1)OCCc1cc(Cl)sc12` (racemic) [Compound 79], for which the IC50 in test [1] and in test [2] was less than 50 nM in each case. In test [2], the Emax stood at 97.5%.

Turning to `C[C@H]1C[C@@]2(C[C@@H](c3ccc(=O)n(C)c3)N1)OCCc1cc(Cl)sc12` (racemic) [Compound 80], the IC50 in test [1] and in test [2] was less than 50 nM each time.

Turning to `C[C@H]1C[C@@]2(C[C@@H](c3ccccc3)N1)OCCc1cc(Cl)sc12` (racemic) [Compound 81], the IC50 in test [1] and in test [2] was less than 50 nM throughout.

Regarding `Cc1ncc([C@@H]2C[C@]3(C[C@H](C)N2)OCCc2cc(Cl)sc23)cn1` (racemic) [Compound 82], the IC50 in test [1] was less than 50 nM. Besides, in test [2], the IC50 is less than 50 nM and the Emax came to 106%.

With `C[C@H]1C[C@@]2(C[C@@H](c3ccccn3)N1)OCCc1cc(Cl)sc12` (racemic) [Compound 83], in test [1], the IC50 is less than 50 nM. In test [2], the IC50 is less than 50 nM and the Emax was 111%.

`COc1ccc2[nH]c([C@@H]3C[C@]4(C[C@H](C)N3)OCCc3cc(Cl)sc34)cc2n1` (racemic) [Compound 84] came in with an IC50 in test [1] of less than 50 nM. Moreover, in test [2], the IC50 was less than 50 nM and the Emax worked out at 112%.

As for `C[C@H]1C[C@@]2(C[C@@H](c3c[nH]cn3)N1)OCCc1cc(Cl)sc12` (racemic) [Compound 85], the IC50 in test [1] and in test [2] was less than 50 nM in each case.

Take `C[C@H]1C[C@@]2(C[C@@H](c3cc(C4CC4)no3)N1)OCCc1cc(Cl)sc12` (racemic) [Compound 87]: the IC50 in test [1] and in test [2] was less than 50 nM in each case.

Take `C[C@H]1C[C@@]2(C[C@@H](c3cc(-c4ccccn4)n[nH]3)N1)OCCc1cc(Cl)sc12` (racemic) [Compound 88]: in test [1], the 90% effect concentration (IC90) is less than 50 nM, the “Multi-Tox Assay Max Activity (%)” value was found to be 99.3% and the IC50 is less than 50 nM. Further, in test [2], the IC50 was less than 50 nM and the Emax was 98%.

Usually IC90 stands for the concentration needed for an effect of 90%. Read a high IC90 as weaker potency.

The record behind these values is patent US12421249B2, “Inhibitors of APOL1 and methods of using same” (Vertex Pharmaceuticals Incorporated, priority 2020, dated 2025).
